Results: patent US20050227355A1, “Serum-free cell culture media” (priority 1996, published 2005)
Entries after “also recorded” stand apart in the source; their conditions may differ.

Columns and labels:
adherent cells = test: Growth stimulating effect of alcohols in adherent cell culture (Example 10); format: cell-based; conditions: concentrations around 0.1%
Source text: Cell culture was again carried out as described in Example 8, but with the addition of a number of alcohols rather than sterols.
Test concentration: 1×=0.1%, or 5×=0.5%.

1E6 Mouse hybridoma = test: Sterol analogues in suspended cell culture (Example 8); format: cell-based; conditions: test concentration 2 μg/ml
Description: The basal media were supplemented by SSR2 described above, i.e. a solution containing 20 mg/ml PLURONIC F68, about 4 mM EDTA, about 3 mM Fe, about 40 mM sodium citrate/citric acid, about 3 mM aurintricarboxylic acid and about 1% trace elements. […] Each cul-ture was run in duplicate. As a control, cholesterol was also used, but in this case the basal medium was supplemented by ‘Solution Cx’ or ‘Solution Dx’ described above, as appropriate to the cell type. The negative controls referred to below were in each case a cell culture containing no test substance (sterol).

[1] = Surface tension of the medium; format: physicochemical
Hybridoma cells = test: Growth promoting effect of alcohols on hybridoma cells (Example 1); format: cell-based, Mouse; conditions: for effect on cell growth (inhibition of cell growth): RPMI-SR3 protein-free medium, alcohol up to 1.0% by vol
Description: • a) Hybridoma cells were cultured in RPMI 1640 supplemented with solutions A and B, described above plus 20 mM ethanolamine (referred to as RPMI-SR3), and by way of comparison in the same medium further supplemented with 10 mg/ml albumen (5% by vol.) or in RPMI 1640 supplemented with 10% v/v horse serum.

[2] = system: Vero, CHO-K1 and 1E6 hybridoma cells; test: Cell growth and morphology in media containing sterols other than cholesterol (Example 8); format: cell-based; conditions: test concentration 2 μg/ml
Description: The basal media used were DME/F12 for adherent cells, and RPMI-X for suspension cells. The basal media were supplemented by SSR2 described above, i.e. a solution containing 20 mg/ml PLURONIC F68, about 4 mM EDTA, about 3 mM Fe, about 40 mM sodium citrate/citric acid, about 3 mM aurintricarboxylic acid and about 1% trace elements. […] For hybridoma cells, this was still further supplemented by ethanolamine at 20 μM. Each cul-ture was run in duplicate. As a control, cholesterol was also used, but in this case the basal medium was supplemented by ‘Solution Cx’ or ‘Solution Dx’ described above, as appropriate to the cell type. The negative controls referred to below were in each case a cell culture containing no test substance (sterol). Cells were cultivated through 2 passages for adherent cells, and 3 passages for the hybridoma line having regard to the greater difficulty of morphological scoring in suspension cultures, this being compensated by the longer culture period. All cultures of the same experiment were subcultured using an identical split ratio, for example 1:10; this ratio being adjusted in the individual experiments to suit the growth rate of the positive control (see above). […] Then adherent cells were trypsinized and subcultured further for the second passage—followed by counting the number of cells when confluent for the second time. Hybridoma cells, growing in suspension, were simply diluted in medium for each new passage. Counting of all kinds of cells were generally performed using a standard Bürker chamber, and viability determined by Trypan Blue exclusion (only viable cells were counted). In some experiments, where feasible, cells were counted directly in the microscope viewing field using a calibrated grid. […] The morphological index is mainly based on three properties: single cell morphology, number of cells, and the degree of uniform distribution of cells around the culture surface (‘cellular behaviour’).

[3] = Stability of sterol against precipitation in medium; format: physicochemical
Description: The optimum sterol for cell culture should meet the following specifications: a) be stable against precipitation in medium at 37° C., b) stimulate cell growth and viability as well as does cholesterol, or better, and c) for adherent cells: produce a high surface tension in the medium for optimum adherence of the cells to the surface by hydrophobic forces.

OCCO [Ethylene Glycol]
effects on cell growth and viability (adherent cells): positive effects on cell growth and viability

C[C@H](CCC(=O)O)[C@H]1CC[C@H]2[C@@H]3[C@H](O)C[C@@H]4C[C@H](O)CC[C@]4(C)[C@H]3C[C@H](O)[C@]12C [Cholic acid]
substitution for cholesterol in suspended cell culture (1E6 Mouse hybridoma): appears possible to substitute cholic acid for cholesterol
surface tension of the medium [1]: low surface tension

CCO [Ethanol]
effect on cell growth (inhibition of cell growth) (Hybridoma cells): positive effects on cell growth
effect on cell growth (inhibition of cell growth) (Hybridoma cells; listed as ethanol): negative inhibition (i.e. promotion) of cell growth
growth promoting effect in protein or serum supplemented media (Hybridoma cells; medium with 10 mg/ml albumen or 10% v/v horse serum): no growth promoting effect; also recorded: not apparent
effects on cell growth and viability (adherent cells): positive effects on cell growth and viability

CC[C@H](CC[C@@H](C)[C@H]1CC[C@H]2[C@@H]3CC=C4C[C@@H](O)CC[C@]4(C)[C@H]3CC[C@]12C)C(C)C [β-sitosterol]
cell growth and viability / suitability as replacement of cholesterol [2]: functions well as a stimulant of cell growth and viability
stability in medium [3]: less than satisfactory

CC(C)CCC[C@@H](C)[C@H]1CC[C@H]2[C@@H]3CC=C4C[C@@H](O)CC[C@]4(C)[C@H]3CC[C@]12C [Cholesterol]
stability in medium [3]: somewhat unstable in media
solubility in the final medium at storage temperature ([3]; 4° C., with PLURONIC F68 and ethanol): kept in solution
solubility in the final medium at cultivation temperature ([3]; 37° C., cell density below 10^5 cells/ml): gradually precipitate

CO [Methanol]
effect on cell growth (inhibition of cell growth) (Hybridoma cells): positive effects on cell growth

CC(=O)O[C@H]1CC[C@@]2(C)C(=CC[C@H]3[C@@H]4CC[C@H]([C@H](C)CCCC(C)C)[C@@]4(C)CC[C@@H]32)C1 [Cholesteryl Acetate]
cell growth and viability / suitability as replacement of cholesterol [2]: barely affected
cell growth and viability / suitability as replacement of cholesterol ([2]; listed as cholesteryl acetate): good results
stability in medium [3]: stable in solution

CC(O)CO (centres unmarked) [propylene glycol]
effects on cell growth and viability (adherent cells): positive effects on cell growth and viability
